# From US6344571B2, “Water soluble analogs and prodrugs of paclitaxel” (Pharmachemie B.V., priority 1998, dated 2002)
# “Also recorded” adds a separate entry of the source. Where two headings read alike, the source gives them in different places.
# Legend:
# [1] = Stability in human plasma, degradation to paclitaxel; format: in vitro ADME; conditions: for T1/2 Human Plasma: human plasma (heparin), 37° C., time in which 50% of the analog is degraded to paclitaxel
# Procedure: (§1) The paclitaxel prodrugs (5, 6, 8, 11) were dissolved in water, sonicated and centrifuged. 100 μl of the above fluid was mixed with 400 μl of plasma (heparin) or PBS-buffer (pH7.4), respectively, in such way that the concentration of the prodrug was about 0.5 mg/mL. The plasma or PBS-buffer, respectively, was incubated at 37° C. and on different points in time (T=0, 0.5, 1, 4, 20, 48 hours) 50 μl was extracted with 150 μl of EtOAc. After mixing for 2 minutes (using a vortex), this mixture was centrifuged (2 minutes, 13000 g) and 100 μl EtOAc was evaporated (30 minutes, in vacuo). The (pro)drugs were dissolved in 50 μl eluent and analyzed by HPLC (Longnecker, S. M. Cancer Treat Rep. 1987, 71, 53-59). The efficiency for the extraction of paclitaxel was about 80%.
# [2] = Stability in PBS-buffer (pH 7.4), degradation to paclitaxel; format: physicochemical; conditions: for stability in PBS buffer: PBS-buffer pH 7.4
# Procedure: as §1, with “The plasma or PBS-buffer, respectively, was incubated at 37° C. and on different points in time (T=0, 0.5, 1, 4, 20, 48 hours) 50 μl was extracted with 150 μl of EtOAc.” left out
# IGROV Ovarian cancer = experiment: Antiproliferative SRB assay, IGROV; format: cell-based, human; conditions: 37° C. 72 h, vs untreated cells
# Description: (§2) Determination of the IC50-values for the new synthesized prodrugs have been determined with a variety of cell lines and have been compared with the IC50-value of paclitaxel 1 (see table II) Compounds 1, 5, 8, 11,:
# (§3) The following human tumor cell lines were used:
# (§4) Cell lines WIDR, M19 MEL, A498 and IGROV belong to the currently used anti-cancer screening panel of the National Cancer Institute, USA (Skeham et al., J. Nat. Cancer Inst. 85: 1107-1112, 1990).
# (§5) Prior to the experiments a myocoplasma test was carried out on all cell lines and found to be negative. All cell lines, except ETSA-T, were maintained in a continuous logarithmic culture in RPMI medium with Hepes and Phenol red supplemented with 10% bovine calf serum (BCS), penicillin 111 IU/ml, streptomycin 111 μg/ml, gentamycin 46 μg/ml and insulin 10.6 μg/ml. EVSA-T was maintained in DMEM with 5% BCS and antibiotics as described. The cells were mildly trypsinized for passage and for use in experiments.
# (§6) The compounds of this invention were dissolved to a concentration of 177147 ng/ml as follows:
# (§7) On day 0, 200 μl of trypsinized tumor cells (2*10^3 cells/well) were plated in 96-wells flatbottom microtiter plates (Costar, no. 3799, Badhoevedorp, The Netherlands). The plates were preincubated 24 hr at 37° C., 5% CO2 to allow the cells to adhere.
# (§8) […] The final volume of column 3 was adjusted to 200 μl with PBS. Column 2 was used for the blank. To column 1 PBS was added to diminish interfering evaporation.
# (§9) […] Subsequently the cells were fixed with 10% trichloroacetic acid in Milli Q water (Millipore, Etten Leur, The Netherlands) and placed at 4° C. for one hour.
# (§10) After five washings with tap water, the cells were stained for at least 15 min. with 0.4% SRB, dissolved in 1% acetic acid, and subsequently washed with 1% acetic acid to remove the unbound stain. The plates were air dried and the bound protein was dissolved by using 150 μl 10 mmol/l tris base. The absorbance was read at 540 nm using an automatic microplate reader (Titertec, Flow Laboratories LtD., Irvine, Scotland). Data were used for construction of concentration-response curves and determination of the IC50-value.
# MCF7 Breast cancer = experiment: Antiproliferative SRB assay, MCF7; format: cell-based, human; conditions: 37° C. 72 h, vs untreated cells
# Procedure: as §2, §3
# (§11) MCF7 is estrogen receptor ER+/Progesterone receptor PgR+ and EVSA-T is ER-/PgR-.
# as §5, §6, §7, §8, §9, §10
# human tumor cell lines = experiment: Cytotoxic activity in human tumor cell lines, overall comparison with paclitaxel; format: cell-based
# Procedure: as §2, §3, §7
# On day 2, 100 μl of the highest drug concentration was added to the wells of column 12 and from there diluted 3-fold to column 3 by serial transfer of 100 μl using an 8 channel micropipette. The final volume of column 3 was adjusted to 200 μl with PBS. Column 2 was used for the blank. To column 1 PBS was added to diminish interfering evaporation.
# On day 7 the incubation was terminated by washing the plates twice with PBS. […]
# After five washings with tap water, the cells were stained for at least 15 min. with 0.4% SRB, dissolved in 1% acetic acid, and subsequently washed with 1% acetic acid to remove the unbound stain. […] The absorbance was read at 540 nm using an automatic microplate reader (Titertec, Flow Laboratories LtD., Irvine, Scotland). […]
# H226 = experiment: Antiproliferative SRB assay, H226; format: cell-based, human; conditions: vs untreated cells
# Procedure: as §2, §3
# […] non small cell lung cancer
# as §5, §6, §7, §8, §9, §10
# A498 Renal cancer = experiment: Antiproliferative SRB assay, A498; format: cell-based, human; conditions: 37° C. 72 h, vs untreated cells
# Description: as §2, §3, §4, §5, §6, §7, §8, §9, §10
# WIDR Colon cancer = experiment: Antiproliferative SRB assay, WIDR; format: cell-based, human; conditions: vs untreated cells
# Description: as §2, §3, §4, §5, §6, §7, §8, §9, §10
# [3] = Water solubility (suspension in water or PBS-buffer, HPLC)
# Procedure: Water Solubility: Paclitaxel or paclitaxel prodrugs (5, 6, 8, 11) were suspended in water or PBS-buffer (pH 7.4) until a concentration was reached of 2 mg/ml. The suspensions were sonicated for 15 minutes and centrifuged (13000 g) for 10 minutes (Nicolaou, K. C. et al. Nature 1993, 364, 464-466). The above fluid was analyzed, using HPLC. The paclitaxel (prodrug) concentration was determined using paclitaxel standards in methanol.
# HPLC: Rheodyne injection valve (20 μl loop); Lichrospher 5RP18 column (200×3 mm, Chrompack); UV-detector (Model 759A, Applied Biosystems); eluent: CH3CN/MeOH/H2O: 5/1/4 in 10 mM NH4OAc (pH 5.0) (Willey, T. A. J. Chromatography 1993, 621, 231-238). The detection of the (pro)drugs was performed at 226 nm, where it is supposed that the extinction coefficients of paclitaxel and paclitaxel prodrugs are equal. The concentrations were determined by measuring the relative area of paclitaxel or the paclitaxel prodrugs.
# M19 MEL Melanoma = experiment: Antiproliferative SRB assay, M19 MEL; format: cell-based, human; conditions: vs untreated cells
# Description: as §2, §3, §4, §5, §6, §7, §8, §9, §10
# EVSA-T Breast cancer = experiment: Antiproliferative SRB assay, EVSA-T; format: cell-based, human; conditions: 37° C. 72 h, vs untreated cells
# Procedure: as §2, §3, §11, §5, §6, §7, §8, §9, §10
# microtubule assembly = conditions: SAR studies, literature; cited from earlier work
# [4] = SAR studies, literature; cited from earlier work
# OVCAR-3 cells = experiment: In vitro antiproliferative effects, OVCAR-3; format: cell-based, human; conditions: for IC50: 37° C. 72 h, vs untreated cells
# Procedure: The human tumor cell line OVCAR-3 was used. OVCAR is an ovarium carcinoma.
# In vitro antiproliferative effects: paclitaxel or paclitaxel prodrugs were dissolved in DMSO to give a concentration of 5 mM. Concentrations were verified by measuring the OD at 226 nm. The antiproliferative effects of drugs and prodrugs were determined with the use of OVCAR-3 cells. Cells in supplemented tissue culture medium (DMEM, 10% fetal calf serum with 50 IU/ml penicillin and 50 microgram/ml streptomycin) were seeded in triplicate in 96-well culture plates (5000/well, 100 microliter). After 24 h, 100 microliter of culture medium containing drug or prodrug was added to give final concentrations ranging from 1 picomolar to 10 micromolar.
# The cells were incubated for an additional 72 h, fixed with 10% trichoroacetic acid and stained with sulforhodamine B. The absorbance at 540 nm was read and the antiproliferative effects were expressed as IC50 values, inhibition when compared with control cell growth (Houba et al. Bioconj. Chem. 1996, 7, 606-611).
Compound,degradation to paclitaxel in human plasma [1],T1/2 Human Plasma [1],IC50 IGROV (IGROV Ovarian cancer) [µg/mL],IC50 MCF7 (MCF7 Breast cancer) [µg/mL],IC50 H226 (H226) [µg/mL],IC50 A498 (A498 Renal cancer) [µg/mL],IC50 WIDR (WIDR Colon cancer) [µg/mL],Water Solubility [3] [µg/mL],IC50 M19 MEL (M19 MEL Melanoma) [µg/mL],IC50 EVSA-T (EVSA-T Breast cancer) [µg/mL],stability in PBS buffer [2],other results
CC(=O)O[C@H]1C(=O)[C@]2(C)[C@@H](OC(C)=O)C[C@H]3OC[C@@]3(OC(C)=O)[C@H]2[C@H](OC(=O)c2ccccc2)[C@]2(O)C[C@H](OC(=O)[C@H](O)[C@@H](NC(=O)c3ccccc3)c3ccccc3)C(C)=C1C2(C)C [7-acetylpaclitaxel],–,–,–,–,–,–,–,–,–,–,–,activity in microtubule assembly assays (microtubule assembly): as active as paclitaxel
"CC(=O)OC1C(=O)C2(C)C(OC(=O)CC(O)C(=O)O)CC3OCC3(OC(C)=O)C2C(OC(=O)c2ccccc2)C2(O)CC(OC(=O)C(OC(=O)CC(O)C(=O)O)C(NC(=O)c3ccccc3)c3ccccc3)C(C)=C1C2(C)C (stereo not drawn) [Compound 8, 2′, 7-Bis(malyl)paclitaxel]",no degradation to the parent drug,no pacl.^b,0.049,0.069,0.241,0.436,0.167,500,0.311,0.059,sufficient stability; also recorded: no degradation to the parent drug,cytotoxic activity compared to paclitaxel (human tumor cell lines): reduced cytotoxic activity
CC(=O)O[C@H]1C(=O)[C@@]2(C)[C@H]([C@H](OC(=O)c3ccccc3)[C@]3(O)C[C@H](OC(=O)[C@H](OC(C)=O)[C@@H](NC(=O)c4ccccc4)c4ccccc4)C(C)=C1C3(C)C)[C@]1(OC(C)=O)CO[C@@H]1C[C@@H]2O [2′-acetyl-paclitaxel],–,–,–,–,–,–,–,–,–,–,–,activity in microtubule assembly assays (microtubule assembly): loss of the ability to promote microtubule assembly; cytotoxic activity compared with paclitaxel [4]: almost the same as for paclitaxel
"CC(=O)O[C@H]1C(=O)[C@@]2(C)[C@H]([C@H](OC(=O)c3ccccc3)[C@]3(O)C[C@H](OC(=O)[C@H](O)[C@@H](NC(=O)c4ccccc4)c4ccccc4)C(C)=C1C3(C)C)[C@]1(OC(C)=O)CO[C@@H]1C[C@@H]2O [paclitaxel, Paclitaxel]",–,–,0.033,<0.003,<0.003,0.005,<0.003,–,<0.003,<0.003,–,"IC50 (OVCAR-3 cells): 0.25 nM; Water Solubility ([3]; suspended to 2 mg/ml, sonicated 15 minutes, centrifuged, HPLC): 10 µg/mL"

# The next lines start with results.
degradation to paclitaxel in human plasma [1],T1/2 Human Plasma [1],IC50 IGROV (IGROV Ovarian cancer) [µg/mL],IC50 MCF7 (MCF7 Breast cancer) [µg/mL],IC50 H226 (H226) [µg/mL],IC50 A498 (A498 Renal cancer) [µg/mL],IC50 WIDR (WIDR Colon cancer) [µg/mL],Water Solubility [3] [µg/mL],IC50 M19 MEL (M19 MEL Melanoma) [µg/mL],IC50 EVSA-T (EVSA-T Breast cancer) [µg/mL],Compound,stability in PBS buffer [2],other results
no degradation to the parent drug,no pacl.^b,0.241,0.39,0.706,1.435,0.589,3,1.344,0.3,"CC(=O)O[C@H]1C(=O)[C@]2(C)[C@@H](OC(=O)CC(O)C(=O)O)C[C@H]3OC[C@@]3(OC(C)=O)[C@H]2[C@H](OC(=O)c2ccccc2)[C@]2(O)C[C@H](OC(=O)[C@H](O)[C@@H](NC(=O)c3ccccc3)c3ccccc3)C(C)=C1C2(C)C (stereo partly drawn) [Compound 11, 7-Malylpaclitaxel]",sufficient stability; also recorded: no degradation to the parent drug,cytotoxic activity compared to paclitaxel (human tumor cell lines): reduced cytotoxic activity
fast hydrolysis rate,4 h,0.233,<0.003,<0.003,<0.003,<0.003,600,<0.003,<0.003,"CC(=O)O[C@H]1C(=O)[C@@]2(C)[C@H]([C@H](OC(=O)c3ccccc3)[C@]3(O)C[C@H](OC(=O)[C@H](OC(=O)CC(O)C(=O)[O-])[C@@H](NC(=O)c4ccccc4)c4ccccc4)C(C)=C1C3(C)C)[C@]1(OC(C)=O)CO[C@@H]1C[C@@H]2O.[Na+] (stereo partly drawn) [Compound 6, Sodium salt of 2′-malylpaclitaxel]",sufficient stability,"amount degraded to paclitaxel within 4 hours ([1]; within 4 hours, matrix not printed in the sentence (human plasma per Table I)): about 500; activity against OVCAR-3 cells compared to paclitaxel (OVCAR-3 cells): comparable; IC50 (OVCAR-3 cells): 0.8 nM; water solubility compared with paclitaxel [3]: Best water solubility; water solubility relative to paclitaxel (times more watersoluble) [3]: sixty"
–,20 h,<0.003,<0.003,0.01,0.039,<0.003,200,0.003,<0.003,"CC(=O)O[C@H]1C(=O)[C@@]2(C)[C@H]([C@H](OC(=O)c3ccccc3)[C@]3(O)C[C@H](OC(=O)[C@H](OC(=O)CC(O)C(=O)O)[C@@H](NC(=O)c4ccccc4)c4ccccc4)C(C)=C1C3(C)C)[C@]1(OC(C)=O)CO[C@@H]1C[C@@H]2O (stereo partly drawn) [Compound 5, 2′-Malylpaclitaxel]",sufficient stability; also recorded: stable,"paclitaxel detected in PBS-buffer after 24 hours ([2]; PBS-buffer pH 7.4, after 24 hours): only traces"
